Literature values in patent US12324827B2, “Combination therapy for the treatment of migraines” (The University of Chicago, priority 2019, dated 2025).

Columns and labels:
spreading depression = conditions: SD from KCl; pretreatment; cited from earlier work
[1] = tested on: trigeminal system neurons; conditions: in vivo; cited from earlier work

Molecule | protection against SD over sham treatment (spreading depression) | CSD-based activation of Aδ fibers and C-fiber afferents in the trigeminal ganglion [1] | activation and sensitization of high threshold trigeminal system neurons after CSD [1] | direct inhibition of CSD [1] | wide dynamic range neurons of the caudal trigeminal nucleus [1]
CC1(C)O[C@@H]2[C@@H](CO[C@@]3(COS(N)(=O)=O)OC(C)(C)O[C@@H]23)O1 [topiramate, reference compound] | no more than a two-fold level of protection |  |  |  | 
TEV-48125: CGRP-mAb fremanezumab, humanized monoclonal anti-CGRP antibody |  | reduce CSD-based activation of Aδ fibers but not activation of C-fiber afferents | inhibited activation and sensitization | did not directly inhibit CSD | had no effect
